# Results: patent publication US12110286B2, “Benzimidazolone derived inhibitors of BCL6” (Cancer Research Technology Limited, priority 2017, dated 2024)
# Target: Trx-6×His-BCL6 (human BCL6 BTB domain covering amino-acid sequence 5-129) (Homo sapiens (Human), UniProt P41182)
# Assay: HTRF in vitro assay (BCL6 / BCOR-AF633 peptide)
# Assay type: binding
# Settings: for activity in the HTRF assay: result in words
# Description: The % inhibition at each concentration was calculated by normalising FRET ratio to the appropriate high (DMSO with all reagents) and low (DMSO without BCL6) controls.
# [1] = further generated data, 1 nM Trx-6×His-BCL6, 300 nM BCOR-AF633 peptide, 0.5 nM anti-6×His-Terbium cryptate
# [2] = initially generated data, 10 nM Trx-6×His-BCL6, 300 nM BCOR-AF633 peptide, 1 nM anti-6×His-Terbium cryptate
activity in the HTRF assay,HTRF pIC50 [1],HTRF pIC50 [2],SMILES
,5.91,5.39,"CCOC(=O)c1cc(Nc2ccc3c(c2)n(CC(O)CC)c(=O)n3C)n2ncc(F)c2n1 (centres unmarked) [Example 1r, Ethyl 3-fluoro-7-((3-(2-hydroxybutyl)-1-methyl-2-oxo-2,3-dihydro-1H-benzo[d]imidazol-5-yl)amino)pyrazolo[1,5-a]pyrimidine-5-carboxylate]"
,6.18,6.41,"COC(=O)c1cc(Nc2ccc3c(c2)n(CCC(C)C(=O)OC)c(=O)n3C)c(C#N)c(Cl)n1 (centres unmarked) [Example 2a, Methyl 6-chloro-5-cyano-4-[[3-(4-methoxy-3-methyl-4-oxo-butyl)-1-methyl-2-oxo-benzimidazol-5-yl]amino]pyridine-2-carboxylate]"
,6.10,6.19,"CCOC(=O)c1cc(Nc2ccc3c(c2)n(CCC(C)C(=O)OC)c(=O)n3C)c(C#N)c(Cl)n1 (centres unmarked) [Example 2b, Ethyl 6-chloro-5-cyano-4-[[3-(4-methoxy-3-methyl-4-oxo-butyl)-1-methyl-2-oxo-benzimidazol-5-yl]amino]pyridine-2-carboxylate]"
,,6.10,"COC(=O)C(C)CCn1c(=O)n(C)c2ccc(Nc3cc(C(=O)OC(C)C)nc(Cl)c3C#N)cc21 (centres unmarked) [Example 2c, Isopropyl 6-chloro-5-cyano-4-[[3-(4-methoxy-3-methyl-4-oxo-butyl)-1-methyl-2-oxo-benzimidazol-5-yl]amino]pyridine-2-carboxylate]"
,5.87,6.17,"CCOC(=O)c1cc(Nc2ccc3c(c2)n(CC[C@@H](C)O)c(=O)n3C)c(C#N)c(Cl)n1 [Example 2d, Ethyl 6-chloro-5-cyano-4-[[3-[(3R)-3-hydroxybutyl]-1-methyl-2-oxo-benzimidazol-5-yl]amino]pyridine-2-carboxylate]"
,5.93,6.21,"COC(=O)C(C)CCn1c(=O)n(C)c2ccc(Nc3cc(C(=O)O)nc(Cl)c3C#N)cc21 (centres unmarked) [Example 3a, 6-Chloro-5-cyano-4-[[3-(4-methoxy-3-methyl-4-oxo-butyl)-1-methyl-2-oxo-benzimidazol-5-yl]amino]pyridine-2-carboxylic acid]"
,5.35,5.39,"COC(=O)C(C)Cn1c(=O)n(C)c2ccc(Nc3ccnc(Cl)c3C#N)cc21 (centres unmarked) [Example 3b, Methyl 3-[6-[(2-chloro-3-cyano-4-pyridyl)amino]-3-methyl-2-oxo-benzimidazol-1-yl]-2-methyl-propanoate]"
,5.37,5.37,"COC(=O)C(C)CCn1c(=O)n(C)c2ccc(Nc3nc(C)ncc3Cl)cc21 (centres unmarked) [Example 3c, Methyl 4-[6-[(5-chloro-2-methyl-pyrimidin-4-yl)amino]-3-methyl-2-oxo-benzimidazol-1-yl]-2-methyl-butanoate]"
,6.19,5.99,"COC(=O)C(C)CCn1c(=O)n(C)c2ccc(Nc3cc(-c4nc(C)no4)nc(Cl)c3C#N)cc21 (centres unmarked) [Example 5, Methyl 4-[6-[[2-chloro-3-cyano-6-(3-methyl-1,2,4-oxadiazol-5-yl)-4-pyridyl]amino]-3-methyl-2-oxo-benzimidazol-1-yl]-2-methyl-butanoate]"
,6.00,5.97,"COC(=O)[C@@H](N)CCn1c(=O)n(C)c2ccc(Nc3ccnc(Cl)c3C#N)cc21 [Example 6, Methyl (2S)-2-amino-4-[6-[(2-chloro-3-cyano-4-pyridyl)amino]-3-methyl-2-oxo-benzimidazol-1-yl]butanoate]"
,6.09,5.97,"CNC(=O)c1cc(Nc2ccc3c(c2)n(CCC(C)C(=O)OC)c(=O)n3C)c(C#N)c(Cl)n1 (centres unmarked) [Example 7a, Methyl 4-[6-[[2-chloro-3-cyano-6-(methylcarbamoyl)-4-pyridyl]amino]-3-methyl-2-oxo-benzimidazol-1-yl]-2-methyl-butanoate]"

# Second part, the compound before the results:
SMILES,activity in the HTRF assay,HTRF pIC50 [1],HTRF pIC50 [2]
"Cn1c(=O)n(CCC(C)(C)O)c2cc(Nc3nc(-n4ccc(C(F)(F)F)n4)ncc3Cl)ncc21 [6-((5-chloro-2-(3-(trifluoromethyl)-1H-pyrazol-1-yl)pyrimidin-4-yl)amino)-1-(3-hydroxy-3-methylbutyl)-3-methyl-1,3-dihydro-2H-imidazo[4,5-c]pyridin-2-one]",did not exhibit the desired activity,,
"Cn1c(=O)n(CCC(C)(C)O)c2cc(Nc3cc(N4CCC(F)(F)CC4)ncc3Cl)ncc21 [6-((5-chloro-2-(4,4-difluoropiperidin-1-yl)pyridin-4-yl)amino)-1-(3-hydroxy-3-methylbutyl)-3-methyl-1,3-dihydro-2H-imidazo[4,5-c]pyridin-2-one]",did not exhibit the desired activity,,
"Cn1c(=O)n(CCC(C)(C)O)c2cc(Nc3nc(N4CCC(F)(F)CC4)ncc3Cl)ncc21 [6-((5-chloro-2-(4,4-difluoropiperidin-1-yl)pyrimidin-4-yl)amino)-1-(3-hydroxy-3-methylbutyl)-3-methyl-1,3-dihydro-2H-imidazo[4,5-c]pyridin-2-one]",did not exhibit the desired activity,,
"CN1CCC[C@@H]1Cn1c(=O)n(C)c2ccc(Nc3ccnc(Cl)c3C#N)cc21 [(R)-2-chloro-4-((1-methyl-3-((1-methylpyrrolidin-2-yl)methyl)-2-oxo-2,3-dihydro-1H-benzo[d]imidazol-5-yl)amino)nicotinonitrile]",did not exhibit the desired activity,,
"Cn1c(=O)n(C[C@@H]2CCCN2CC2CC2)c2cc(Nc3ccnc(Cl)c3C#N)ccc21 [(S)-2-chloro-4-((3-((1-(cyclopropylmethyl)pyrrolidin-2-yl)methyl)-1-methyl-2-oxo-2,3-dihydro-1H-benzo[d]imidazol-5-yl)amino)nicotinonitrile]",did not exhibit the desired activity,,
"Cn1c(=O)n(C)c2cc(Nc3cc(C(=O)O)nc(Cl)c3C#N)ccc21 [Example 1c, 6-chloro-5-cyano-4-[(1,3-dimethyl-2-oxo-benzimidazol-5-yl)amino]pyridine-2-carboxylic acid]",,6.08,6.05
"CNC(=O)c1cc(Nc2ccc3c(c2)n(CC[C@H](C)n2cccn2)c(=O)n3C)c(C#N)c(Cl)n1 [Example 1d, 6-chloro-5-cyano-N-methyl-4-[[1-methyl-2-oxo-3-[(3S)-3-pyrazol-1-ylbutyl]benzimidazol-5-yl]amino]pyridine-2-carboxamide]",,,6.04
"C[C@@H](O)CCn1c(=O)n(C)c2ccc(Nc3cc(C(=O)O)nc(Cl)c3C#N)cc21 [Example 1e, 6-chloro-5-cyano-4-[[3-[(3R)-3-hydroxybutyl]-1-methyl-2-oxo-benzimidazol-5-yl]amino]pyridine-2-carboxylic acid]",,,6.01
"CNC(=O)c1cc(Nc2ccc3c(c2)[nH]c(=O)n3C)c(C#N)c(Cl)n1 [Example 1f, 6-chloro-5-cyano-N-methyl-4-[(1-methyl-2-oxo-3H-benzimidazol-5-yl)amino]pyridine-2-carboxamide]",,5.59,5.84
"CNC(=O)c1cc(Nc2ccc3c(c2)n(CCC(C)(C)O)c(=O)n3CC2CCOCC2)c(C#N)c(Cl)n1 [Example 1g, 6-chloro-5-cyano-4-[[3-(3-hydroxy-3-methyl-butyl)-2-oxo-1-(tetrahydropyran-4-ylmethyl)benzimidazol-5-yl]amino]-N-methyl-pyridine-2-carboxamide]",,5.95,5.82
"CCOC(=O)c1cc(Nc2ccc3c(c2)n(CCC(C)(C)O)c(=O)n3C)n2nccc2n1 [Example 1h, Ethyl 7-[[3-(3-hydroxy-3-methyl-butyl)-1-methyl-2-oxo-benzimidazol-5-yl]amino]pyrazolo[1,5-a]pyrimidine-5-carboxylate]",,5.94,5.79
"Cn1c(=O)n(CCC(C)(C)O)c2cc(Nc3ccnc(Cl)c3C#N)ccc21 [Example 1i, 2-chloro-4-[[3-(3-hydroxy-3-methyl-butyl)-1-methyl-2-oxo-benzimidazol-5-yl]amino]pyridine-3-carbonitrile]",,6.08,5.77
"COC(=O)C(C)CCn1c(=O)n(C)c2ccc(Nc3ccnc(Cl)c3C#N)cc21 (centres unmarked) [Example 1j, Methyl 4-[6-[(2-chloro-3-cyano-4-pyridyl)amino]-3-methyl-2-oxo-benzimidazol-1-yl]-2-methyl-butanoate]",,5.78,5.67
"Cn1c(=O)n(CCC(C)(C)O)c2cc(Nc3ccnc(Br)c3C#N)ccc21 [Example 1k, 2-bromo-4-[[3-(3-hydroxy-3-methyl-butyl)-1-methyl-2-oxo-benzimidazol-5-yl]amino]pyridine-3-carbonitrile]",,5.82,5.63
"Cc1cc(Nc2ccc3c(c2)n(CC[C@@H](C)O)c(=O)n3C)c(C#N)c(Cl)n1 [Example 1l, 2-chloro-4-[[3-[(3R)-3-hydroxybutyl]-1-methyl-2-oxo-benzimidazol-5-yl]amino]-6-methyl-pyridine-3-carbonitrile]",,5.53,5.62
"C[C@@H](O)CCn1c(=O)n(C)c2ccc(Nc3cc(Cl)ncc3Cl)cc21 [Example 1m, 5-[(2,5-dichloro-4-pyridyl)amino]-3-[(3R)-3-hydroxybutyl]-1-methyl-benzimidazol-2-one]",,5.47,5.62
"CCOC(=O)c1cc(Nc2ccc3c(c2)n(CC[C@@H](C)O)c(=O)n3C)n2nccc2n1 [Example 1o, Ethyl 7-[[3-[(3R)-3-hydroxybutyl]-1-methyl-2-oxo-benzimidazol-5-yl]amino]pyrazolo[1,5-a]pyrimidine-5-carboxylate]",,5.48,5.58
"C[C@@H](O)CCn1c(=O)n(C)c2ccc(Nc3ccnc(Cl)c3Cl)cc21 [Example 1q, 5-[(2,3-dichloro-4-pyridyl)amino]-3-[(3R)-3-hydroxybutyl]-1-methyl-benzimidazol-2-one]",,5.45,5.49
